Data set [1] can be described thus: Head-to-tail native chemical ligation in two-module microfluidic flow: SEAon peptide amide rearranged to SEAE thioester (pH 1, TCEP, 60 min, 90 or 65 C), then MPAA (0.4 M)/Na2HPO4 (0.2 M) pH 7.3 cyclisation onto N-terminal Cys. The conditions noted are these: water (phosphate buffer, MPAA, TCEP; decane segmented carrier; 6 M Gn.HCl for 4l-p), 0.6 mM, 37.0 °C, 2 steps.

Data set [2] is described as follows: Head-to-tail native chemical ligation in two-module microfluidic flow: SEAon peptide amide rearranged to SEAE thioester (pH 1, TCEP, 60 min, 90 or 65 C), then MPAA (0.4 M)/Na2HPO4 (0.2 M) pH 7.3 cyclisation onto N-terminal Cys, 4 min. The conditions noted are these: 30-membered ring, water (phosphate buffer, MPAA, TCEP; decane segmented carrier), 0.6 mM, 37.0 °C, 0.067 h, 2 steps, scale: %.

Setting [3] is: the molecule shown is the open-chain precursor, 54-membered ring, 0.25 h.

The text below walks through data of article PMC6054628.

Consider “H-CRCLCRRGVCRCICTRGF-SEAon (via SEAE thioester)”, for which the ring closure, yield over several steps in data set [1] (setting [3]) worked out at 23%.

For `CC[C@H](C)[C@@H]1NC(=O)[C@H](CS)NC(=O)[C@H]([C@@H](C)O)NC(=O)CNC(=O)[C@H](Cc2c[nH]cn2)NC(=O)[C@H](C(C)C)NC(=O)CNC(=O)[C@H](CCC(=O)O)NC(=O)[C@H](CCCCN)NC(=O)[C@H](CC(C)C)NC1=O` [H-CILKEGVHGT-SEAon (via SEAE thioester)], the ring closure, yield over several steps in data set [1] (from CC[C@H](C)[C@H](NC(=O)[C@@H](N)CS)C(=O)N[C@@H](CC(C)C)C(=O)N[C@@H](CCCCN)C(=O)N[C@@H](CCC(=O)O)C(=O)NCC(=O)N[C@H](C(=O)N[C@@H](Cc1c[nH]cn1)C(=O)NCC(=O)N[C@H](C(=O)SCCNCCS)[C@@H](C)O)C(C)C, 30-membered ring, 0.067 h) was determined as 49%. For the same compound, the ring closure, conversion by HPLC in data set [2] (from CC[C@H](C)[C@H](NC(=O)[C@@H](N)CS)C(=O)N[C@@H](CC(C)C)C(=O)N[C@@H](CCCCN)C(=O)N[C@@H](CCC(=O)O)C(=O)NCC(=O)N[C@H](C(=O)N[C@@H](Cc1c[nH]cn1)C(=O)NCC(=O)N[C@H](C(=O)SCCNCCS)[C@@H](C)O)C(C)C) is 73.

For the compound `CC[C@H](C)[C@@H]1NC(=O)[C@H](CS)NC(=O)[C@H](C(C)C)NC(=O)CNC(=O)[C@H](Cc2c[nH]cn2)NC(=O)[C@H](C(C)C)NC(=O)CNC(=O)[C@H](CCC(=O)O)NC(=O)[C@H](CCCCN)NC(=O)[C@H](CC(C)C)NC1=O` [H-CILKEGVHGV-SEAon (via SEAE thioester)], the ring closure, yield over several steps in data set [1] (from CC[C@H](C)[C@H](NC(=O)[C@@H](N)CS)C(=O)N[C@@H](CC(C)C)C(=O)N[C@@H](CCCCN)C(=O)N[C@@H](CCC(=O)O)C(=O)NCC(=O)N[C@H](C(=O)N[C@@H](Cc1c[nH]cn1)C(=O)NCC(=O)N[C@H](C(=O)SCCNCCS)C(C)C)C(C)C, 30-membered ring, 0.067 h) was 46%. This compound also had a ring closure, conversion by HPLC in data set [2] (from CC[C@H](C)[C@H](NC(=O)[C@@H](N)CS)C(=O)N[C@@H](CC(C)C)C(=O)N[C@@H](CCCCN)C(=O)N[C@@H](CCC(=O)O)C(=O)NCC(=O)N[C@H](C(=O)N[C@@H](Cc1c[nH]cn1)C(=O)NCC(=O)N[C@H](C(=O)SCCNCCS)C(C)C)C(C)C) of 73.

As for “H-CRCICTRGFCRCLCRRGV-SEAon (via SEAE thioester)”, in data set [1] (setting [3]), the ring closure, yield over several steps amounted to 29%.

Consider “H-CQPWSSMIPHEHSFLPSSYRGKDLQENY-SEAon (via SEAE thioester)”, for which, in data set [1] (the molecule shown is the open-chain precursor, 84-membered ring, 0.25 h), the ring closure, yield over several steps came out at 41%.

Take “H-CRAIATRGFARALARRGV-SEAon (via SEAE thioester)”: the ring closure, yield over several steps in data set [1] (the molecule shown is the open-chain precursor, 54-membered ring, 0.067 h) was 37%.

On to `CC[C@H](C)[C@@H]1NC(=O)[C@H](CS)NC(=O)[C@H](C(C)C)NC(=O)CNC(=O)[C@H](Cc2c[nH]cn2)NC(=O)[C@H](C(C)C)NC(=O)[C@@H]2CCCN2C(=O)CNC(=O)[C@H](CC(=O)O)NC(=O)[C@H](CC(C)C)NC1=O` [H-CILDGPVHGV-SEAon (via SEAE thioester)], for which the ring closure, yield over several steps in data set [1] (from CC[C@H](C)[C@H](NC(=O)[C@@H](N)CS)C(=O)N[C@@H](CC(C)C)C(=O)N[C@@H](CC(=O)O)C(=O)NCC(=O)N1CCC[C@H]1C(=O)N[C@H](C(=O)N[C@@H](Cc1c[nH]cn1)C(=O)NCC(=O)N[C@H](C(=O)SCCNCCS)C(C)C)C(C)C, 30-membered ring, 0.067 h) came to 37%. Moreover, in data set [2] (from CC[C@H](C)[C@H](NC(=O)[C@@H](N)CS)C(=O)N[C@@H](CC(C)C)C(=O)N[C@@H](CC(=O)O)C(=O)NCC(=O)N1CCC[C@H]1C(=O)N[C@H](C(=O)N[C@@H](Cc1c[nH]cn1)C(=O)NCC(=O)N[C@H](C(=O)SCCNCCS)C(C)C)C(C)C), the ring closure, conversion by HPLC came out at 43.

`CC[C@H](C)[C@@H]1NC(=O)[C@H](CS)NC(=O)[C@@H]2CCCN2C(=O)CNC(=O)[C@H](Cc2c[nH]cn2)NC(=O)[C@H](C(C)C)NC(=O)CNC(=O)[C@H](CCC(=O)O)NC(=O)[C@H](CCCCN)NC(=O)[C@H](CC(C)C)NC1=O` [H-CILKEGVHGP-SEAon (via SEAE thioester)] displayed a ring closure, yield over several steps in data set [1] (from CC[C@H](C)[C@H](NC(=O)[C@@H](N)CS)C(=O)N[C@@H](CC(C)C)C(=O)N[C@@H](CCCCN)C(=O)N[C@@H](CCC(=O)O)C(=O)NCC(=O)N[C@H](C(=O)N[C@@H](Cc1c[nH]cn1)C(=O)NCC(=O)N1CCC[C@H]1C(=O)SCCNCCS)C(C)C, 30-membered ring, 0.067 h) of 38%. In data set [2] (from CC[C@H](C)[C@H](NC(=O)[C@@H](N)CS)C(=O)N[C@@H](CC(C)C)C(=O)N[C@@H](CCCCN)C(=O)N[C@@H](CCC(=O)O)C(=O)NCC(=O)N[C@H](C(=O)N[C@@H](Cc1c[nH]cn1)C(=O)NCC(=O)N1CCC[C@H]1C(=O)SCCNCCS)C(C)C), the ring closure, conversion by HPLC was found to be 70.

As for `CC[C@H](C)[C@@H]1NC(=O)[C@H](CS)NC(=O)[C@H](C(C)C)NC(=O)CNC(=O)[C@H](Cc2c[nH]cn2)NC(=O)[C@H](C(C)C)NC(=O)[C@@H]2CCCN2C(=O)CNC(=O)[C@H](CC(N)=O)NC(=O)[C@H](CC(C)C)NC1=O` [H-CILNGPVHGV-SEAon (via SEAE thioester)], the ring closure, yield over several steps in data set [1] (from CC[C@H](C)[C@H](NC(=O)[C@@H](N)CS)C(=O)N[C@@H](CC(C)C)C(=O)N[C@@H](CC(N)=O)C(=O)NCC(=O)N1CCC[C@H]1C(=O)N[C@H](C(=O)N[C@@H](Cc1c[nH]cn1)C(=O)NCC(=O)N[C@H](C(=O)SCCNCCS)C(C)C)C(C)C, 30-membered ring, 0.067 h) came out at 66%. Further, the ring closure, conversion by HPLC in data set [2] (from CC[C@H](C)[C@H](NC(=O)[C@@H](N)CS)C(=O)N[C@@H](CC(C)C)C(=O)N[C@@H](CC(N)=O)C(=O)NCC(=O)N1CCC[C@H]1C(=O)N[C@H](C(=O)N[C@@H](Cc1c[nH]cn1)C(=O)NCC(=O)N[C@H](C(=O)SCCNCCS)C(C)C)C(C)C) was found to be 63.

In data set [1] (from CC[C@H](C)[C@H](NC(=O)[C@@H](N)CS)C(=O)N[C@@H](CC(C)C)C(=O)N[C@@H](CCCCN)C(=O)N[C@@H](CCC(=O)O)C(=O)NCC(=O)N[C@H](C(=O)N[C@@H](Cc1c[nH]cn1)C(=O)NCC(=O)N[C@H](C(=O)SCCNCCS)[C@@H](C)CC)C(C)C, 30-membered ring, 0.067 h), `CC[C@H](C)[C@@H]1NC(=O)CNC(=O)[C@H](Cc2c[nH]cn2)NC(=O)[C@H](C(C)C)NC(=O)CNC(=O)[C@H](CCC(=O)O)NC(=O)[C@H](CCCCN)NC(=O)[C@H](CC(C)C)NC(=O)[C@H]([C@@H](C)CC)NC(=O)[C@H](CS)NC1=O` [H-CILKEGVHGI-SEAon (via SEAE thioester)] had a ring closure, yield over several steps of 51%. For the same compound, in data set [2] (from CC[C@H](C)[C@H](NC(=O)[C@@H](N)CS)C(=O)N[C@@H](CC(C)C)C(=O)N[C@@H](CCCCN)C(=O)N[C@@H](CCC(=O)O)C(=O)NCC(=O)N[C@H](C(=O)N[C@@H](Cc1c[nH]cn1)C(=O)NCC(=O)N[C@H](C(=O)SCCNCCS)[C@@H](C)CC)C(C)C), the ring closure, conversion by HPLC was found to be 96.

As to `CC[C@H](C)[C@@H]1NC(=O)[C@H](CS)NC(=O)[C@H](C(C)C)NC(=O)CNC(=O)[C@H](Cc2c[nH]cn2)NC(=O)[C@H](C(C)C)NC(=O)[C@@H]2CCCN2C(=O)[C@H](CCC(=O)O)NC(=O)[C@H](CCCCN)NC(=O)[C@H](CC(C)C)NC1=O` [H-CILKEPVHGV-SEAon (via SEAE thioester)], the ring closure, yield over several steps in data set [1] (from CC[C@H](C)[C@H](NC(=O)[C@@H](N)CS)C(=O)N[C@@H](CC(C)C)C(=O)N[C@@H](CCCCN)C(=O)N[C@@H](CCC(=O)O)C(=O)N1CCC[C@H]1C(=O)N[C@H](C(=O)N[C@@H](Cc1c[nH]cn1)C(=O)NCC(=O)N[C@H](C(=O)SCCNCCS)C(C)C)C(C)C, 30-membered ring, 0.067 h) came to 46%. In addition, in data set [2] (from CC[C@H](C)[C@H](NC(=O)[C@@H](N)CS)C(=O)N[C@@H](CC(C)C)C(=O)N[C@@H](CCCCN)C(=O)N[C@@H](CCC(=O)O)C(=O)N1CCC[C@H]1C(=O)N[C@H](C(=O)N[C@@H](Cc1c[nH]cn1)C(=O)NCC(=O)N[C@H](C(=O)SCCNCCS)C(C)C)C(C)C), the ring closure, conversion by HPLC amounted to 56.

Consider “H-CTRGFCRCLCRRGVCRCI-SEAon (via SEAE thioester)”, for which, in data set [1] (setting [3]), the ring closure, yield over several steps was 34%.
